Measured values taken from patent US10632127B2, “Targeted notch pathway inhibitors” (Hoffmann-La Roche Inc., priority 2015, dated 2020).

How the values were obtained:
[1] = system: Notch1 and cleaved Notch1; assay: Immunohistochemistry of Notch1 and cleaved Notch1 in kidneys of mice exposed to aristolochic acid; type: in vivo, mouse; settings: for Notch1 and cleaved Notch1 in kidneys (immunohistochemistry): AA-exposed mice, 11a 10 mg/kg b.i.d. or 13a 30 mg/kg b.i.d. i.p., day 7, versus AA-treated mice without prodrug; for modification of Notch or cleaved Notch levels in the kidneys: healthy wild-type mice, compound injected alone (results not shown)
Method: FIG. 3. Expression of Notch1 and active cleaved Notch1 determined by immuno-histochemistry in kidneys of mice exposed to aristolochic acid (AA) and treated either with the amine-SecrI (11a) or with Ac-γ-Glu-SecrI (13a).
Sections (7 μm) of snap-frozen kidneys were exposed to an anti-γ-secretase-cleaved Notch (cNotch) antibody, followed by the […] staining. Immunostaining is visualized as dark precipitate.
All experiments with animals were conducted in accordance with federal and local regulation at the respective study location. Kidney injury was induced by intraperitoneal (i.p). injection of aristolochic acid (AA, Sigma-Aldrich, 1×5 mg/kg) in 10 weeks old BALB/c male mice. The γ-secretase inhibitors prodrugs were diluted in NaCl 0.9% and administered i.p., starting one day before the injection of AA (day −1) and then twice daily until day 6 evening (n=5 mice/experimental group). At day 7 morning (12 h after the last prodrug injection), blood was collected and the mice were sacrificed to remove the liver and both kidneys. The kidneys were cut in four fragments. One fragment was immediately frozen in liquid nitrogen, one fragment was included in OCT (Tissue-Tek, VWR International, Switzerland) and frozen, one fragment was frozen at −80° C. and one fragment was fixed in 4% paraformaldehyde and included in paraffin.
OCT-embedded frozen kidneys were cut at 7 μm. The sections were air dried, fixed for 10 min in cold (−20° C.). methanol, rinsed in PBS 0.1% Triton x-100 (PBS/Triton), and blocked for 30 min with PBS/Triton containing 5% bovine serum albumin (BSA). The rabbit anti-Notch1 antibody (D1E11, diluted 1/50) and the rabbit anti-cleaved Notch1 antibody (Val1744, diluted 1/50) were purchased from Cell Signaling, the biotinylated anti-rabbit antibody from Vector Laboratories (diluted 1/500) and streptavidin/HRP (diluted 1/500) from Dako. The primary antibodies were diluted in PBS containing 5% BSA and were incubated with the sections for 1 h at RT. Endogenous peroxidase and biotin were blocked using 3% H2O2 and Avidin/Biotin blocking kit (Vector Laboratories), respectively. The slides were rinsed with PBS/Triton three times and incubated for 1 h at RT with anti-rabbit biotin secondary antibody diluted in the same buffer as for primary antibodies. After three washes with PBS, slides were incubated with streptavidin/HRP antibody for 1 h at RT, then 3,3′diaminobenzidine (DAB, Dako) was added for 15 min. The slides were washed in distilled water, mounted in Aquamount and analyzed.
To investigate potential nephroprotective effects of Notch blockade using γ-secretase inhibition and to evaluate the effects of our enzyme-targeted prodrug strategy, we used the in vivo AA mouse model of acute renal tubular damage. […]

[2] = system: γ-GT; assay: Histoenzymography of γ-GT activity in ex-vivo mouse kidneys; type: biochemical; settings: ex-vivo kidneys of non-diseased BALB/c mice
Method: FIG. 2B. Selective inhibition of the enzymatic activities of APA and yGT by the γ-secretase analogues determined by histoenzymography in the kidneys of non diseased BALB/c mice.
Evaluation by histoenzymography of APA and γ-GT enzymatic activities on frozen tissue was performed as described in Juillerat-Jeanneret, L. et al., Lab. Invest. 2000, 80, 973-980. Briefly, OCT-embedded frozen kidneys were cut in 7 μm sections in a cryostat, fixed for 5 min in cold (−20° C.) acetone, air dried at RT and rehydrated for 5 min in 0.9% NaCl. Naphthylamide substrates were obtained from commercial sources (α-Glu-4-methoxy-β-naphtylamide (APA) from Bachem; and γ-Glu-4-methoxy-β-naphtylamide (γ-GT) from Serva). Substrates (1 mg) were dissolved in 1 ml DMF and 2 mg Fast Blue B (Sigma-Aldrich) was dissolved in 2 ml 0.2M cacodylate buffer pH 7.4 containing 700 mg/l CaCl2; then both solutions were slowly mixed immediately before use and the pH adjusted to 6.5-7.0. […] The slides were washed in distilled water, counter-stained with hematoxylin (Mayer) for 1 min, rinsed under tap water, then with Scott solution for 1 min, rinsed under tap water, mounted in Aquamount (Immu-mount, Thermo Shandon Pittsburgh, Pa., USA) and analyzed with a Nikon Eclipse E800 microscope and digital DXM1200 camera using ACT-1 software. […]

**Q.** `C[C@H]1Oc2ccc(F)cc2N(CCOC(=O)NCCN)C(=O)[C@H]1NC(=O)[C@@](C)(O)C(=O)NCC(F)(F)C(F)(F)F.Cl` [Compound 11a, 2-((2R,3S)-7-Fluoro-3-((S)-2-hydroxy-2-methyl-3-oxo-3-(2,2,3,3,3-pentafluoropropylamino)propanamido)-2-methyl-4-oxo-3,4-dihydrobenzo[b][1,4]oxazepin-5(2H)-yl)ethyl 2-aminoethylcarbamate hydrochloride] was tested. Which “Notch1 and cleaved Notch1 in kidneys (immunohistochemistry)” value [1] did it give?
**A.** The value was “reduced”.

**Q.** What about the “modification of Notch or cleaved Notch levels in the kidneys” value [1] of the same compound?
**A.** The value was “Neither (11a) nor (13a) injected alone induced any modification”.

**Q.** Which “inhibition of γ-GT-like activity (hydrolysis of γ-Glu-naphthylamide)” value [2] does the source give for `CC(=O)N[C@@H](CCC(=O)NCCNC(=O)OCCN1C(=O)[C@@H](NC(=O)[C@@](C)(O)C(=O)NCC(F)(F)C(F)(F)F)[C@@H](C)Oc2ccc(F)cc21)C(=O)O` [Compound 13a, (S)-2-acetamido-5-(2-((2-((2R,3S)-7-fluoro-3-((S)-2-hydroxy-2-methyl-3-oxo-3-(2,2,3,3,3-pentafluoropropylamino)propanamido)-2-methyl-4-oxo-3,4-dihydrobenzo[b][1,4]oxazepin-5(2H)-yl)ethoxy)carbonylamino)ethylamino)-5-oxopentanoic acid] here?
**A.** The value was “able to inhibit γ-GT-like activity”.

**Q.** What about the “Notch1 and cleaved Notch1 in kidneys (immunohistochemistry)” value [1] of the same compound?
**A.** The value was “reduced”.

**Q.** What about the “modification of Notch or cleaved Notch levels in the kidneys” value [1] of the same compound?
**A.** Its value is “Neither (11a) nor (13a) injected alone induced any modification”.
